Data set [1] can be described thus: Reduction of POV in model perfume using AKG-HEI. To be noted: 1.0% w/v; 7 days after addition. How it is done:
The mixed citrus oil was loaded into the solvent at approximately 16.7% v/v (40 mL oil into 200 mL solvent, 240 mL total perfume). Approximately 150 mg (1.0% w/v) of the AKG-HEI salt was dissolved in 15 mL of the mixed citrus perfume, and POV measurements were taken as a function of time after the addition. An untreated perfume sample was handled similarly to the treated perfume and also tested, because the POV can rise rapidly with handling of the sample (opening the bottle, agitation, etc.).

The nature of data set [2]: Reduction of POV in model perfume using oxaloacetic acid. To be noted: 0.83% w/v; 24 hours after treatment.
Data set [3] is described as follows: POV of mixed citrus oil treated with AKG-DiMeC12A salt. To be noted: 1.0% w/v, within 72 hours (3 days) after addition. The text has this:
In addition to the treatment done in a model perfume as described above, a similar experiment was done in mixed citrus oil. A sample of mixed citrus oil was made by combining lime, orange, grapefruit, lemon, mandarin, tangerine, and bergamot oils, so that a variety of terpene hydroperoxides would be present in the treated mixture being tested. […] An untreated mixed citrus oil sample was handled similarly to the treated oil and also tested, because the POV can rise rapidly with handling of the sample (opening the bottle, agitation, etc.).

A short description of data set [4]: Surface tension of aqueous solution, pendant drop method. Type of data set: physicochemical. Particulars: 0.14 weight % solution in water; pure water 71.57 mN/m. How it is done: The measurement was made on a Kruss DSA100S Tensiometer by the pendant drop method. […] This concentration was chosen so the results could be compared to the literature value for known surfactant sodium dodecyl sulfate (SDS) at 5 mM, which is approximately 0.15 weight %.

Data set [5] can be described thus: Reduction of POV in sunflower oil using AKG-DiMeC12A. Particulars: for POV of treated oil: 0.3062 g in 15 mL sunflower oil.
Source text: (§1) The mixture was allowed to stand on the benchtop in ambient laboratory light at room temperature, and POV measurements were taken periodically.
Data set [6] is described as follows: POV of spiked consumer product: Skin Cream. Particulars: 1% (w/w); for POV of treated Skin Cream: spiked with oxidized limonene. As for the experimental part: This Example reports the treatment of exemplary consumer product formulations. […] All of the samples had not been fragranced, so the POV was be associated with autooxidized base components. The five consumer product formulations were spiked with an extremely oxidized limonene that was produced in a photoreactor as a source of mixed limonene hydroperoxide isomers (the POV was 1434 mmol/L).
Sample Preparation: 40 mL (Sample #3) or 40 g (Samples #1, 2, 4 & 5) were each spiked with 0.4 mL of oxidized limonene and mixed until homogeneous. Half of each spiked consumer product sample was transferred to a second container, and treated as described in the table below with 0.5-1% (w/w) of a 2-oxocarboxylic acid ammonium salt, then mixed to homogeneity. […]

A short description of data set [7]: POV of model perfume treated with AKG-mono(DiMeC12A). To be noted: 1.0% w/v; within 26 hours after the addition. How it is done:
A model perfume was made using 90/10 v/v ethanol/water as a solvent, and a mixture of orange, grapefruit, and bergamot oils as the perfume oil. The mixed citrus oil was loaded into the solvent at approximately 19.4% v/v (6 mL oil into 25 mL solvent). Approximately 200 mg (1.0% w/v) of the AKG-monoMeC12A salt was dissolved in 20 mL of the mixed citrus perfume, and POV measurements were taken as a function of time after the addition. An untreated perfume sample was handled similarly to the treated perfume and also tested, because the POV can rise rapidly with handling of the sample (opening the bottle, agitation, etc.).

The conditions of data set [8]: 0.3358 g in 15 mL sunflower oil; 23 days; indistinguishable from BLANK.
A short description of data set [9]: Reduction of POV in model perfume using α-ketoglutaric acid. To be noted: 1.2% w/v; 24 hours after treatment.
A short description of data set [10]: Reduction of POV in sunflower oil using DiMeC10A-PhPA. Particulars: for POV of treated oil: 0.3032 g in 15 mL sunflower oil.
Source text: as §1
Data set [11] can be described thus: Reduction of POV in model perfume using PhPA-DiMeC10A. To be noted: […] w/v; 7 days after addition. How it is done: The mixed citrus oil was loaded into the solvent at approximately 16.7% v/v (40 mL oil into 200 mL solvent, 240 mL total perfume). Approximately 164 mg (1.1% w/v) of the PhPA-DiMeC10A salt was dissolved in 15 mL of the mixed citrus perfume, and POV measurements were taken as a function of time after the addition. An untreated perfume sample was handled similarly to the treated perfume and also tested, because the POV can rise rapidly with handling of the sample (opening the bottle, agitation, etc.).

Like-named read-outs stand apart in the source and are kept apart here.

Consider `O=C(O)CCC(=O)C(=O)O.O=C1NCCN1CCO.O=C1NCCN1CCO` [AKG-HEI], for which, in [1], the “reduction in POV relative to untreated material” value came to 92.1%.

For the compound `O=C(O)CC(=O)C(=O)O` [oxaloacetic acid], in data set [2], the “reduction in the POV of the formulated perfume” value is reported as “complete reduction”.

In the case of `CCCCCCCCCCCCN(C)C.CCCCCCCCCCCCN(C)C.O=C(O)CCC(=O)C(=O)O` [AKG-DiMeC12A], the “reduction in the POV” value in data set [3] is 89.0%. Also, the surface tension in [4] is recorded as 32.08 mN/m. Further, the figures for the “POV of treated oil” value in data set [5] (50 minutes), in data set [5] (1320 mins (22 hrs)) and in data set [5] (23 days) were 15.36 mmol/L, 12.68 mmol/L and 3.05 mmol/L, respectively. Besides, the “% Reduction in POV” value came to 7.2% in data set [5] (50 minutes); 23.5% in [5] (1320 mins (22 hrs)); 83.6% in data set [5] (23 days); 56.7% in data set [6] (140 minutes); 68.4% in data set [6] (300 minutes (5 h)); 84.6% in [6] (26 hrs). Besides, the “% Reduction in POV” value was 90.9% in [6] (4 days), 93.0% in data set [6] (8 days) and 100.0% in data set [6] (15 days). Further, the “POV of treated Skin Cream” value in data set [6] (140 minutes) is 6.06 mmol/L; in data set [6] (300 minutes (5 h)), 4.5 mmol/L; in data set [6] (26 hrs) it was 2.08 mmol/L; in data set [6] (4 days), 1.16 mmol/L; in data set [6] (8 days), 0.82 mmol/L; in data set [6] (15 days), 0 mmol/L.

In turn, `CCCCCCCCCCCCN(C)C.O=C(O)CCC(=O)C(=O)O` [AKG-mono(DiMeC12A)] came in with a surface tension in data set [4] of 32.93 mN/m. Also, in [7], the “reduction in the POV” value is “total and complete reduction”.

Turning to `CCCCCCCCCCN(C)C.O=C(O)C(=O)c1ccco1` [FAA-DiMeC10A], the “POV of treated oil” value in data set [8] is 0.00 mmol/L.

Regarding `O=C(O)CCC(=O)C(=O)O` [α-ketoglutaric acid], the “reduction in the POV of the formulated perfume” value in data set [9] is “complete reduction”.

Consider `CCCCCCCCCCN(C)C.O=C(O)C(=O)Cc1ccccc1` [DiMeC10A-PhPA], for which, in data set [10] (0.3032 g in 15 mL), the “solubility in sunflower oil” value is listed as “majority of the salt dissolved, but some undissolved solid remained”. Moreover, the “POV of treated oil” value in data set [10] (55 minutes) stood at 3.78 mmol/L; in data set [10] (140 minutes, indistinguishable from BLANK) it was 0.00 mmol/L; in data set [10] (1320 mins (22 hrs), indistinguishable from BLANK) it was 0.00 mmol/L; in [10] (23 days, indistinguishable from BLANK) it was 0.00 mmol/L. The “% Reduction in POV” value came out at 77.2% in [10] (55 minutes), 100% in data set [10] (140 minutes), 100% in data set [10] (1320 mins (22 hrs)) and 100% in data set [10] (23 days). Further, the “reduction in POV relative to untreated material” value in data set [11] is on record as 87.2%.
